US8697732B2, “Pyridine derivatives” (Actelion Pharmaceuticals Ltd., priority 2006, dated 2014)

Legend:
[1] = target: recombinant human S1P1 receptor (Homo sapiens, UniProt P21453); assay: GTPγS assay to determine EC50 values; assay type: biochemical; details: 35S-GTPγS binding, membrane preparations of CHO cells expressing recombinant human S1P1 receptor
Method: GTPγS binding assays are performed in 96 well microtiter plates (Nunc, 442587) in a final volume of 200 μl, using membrane preparations of CHO cells expressing recombinant human S1P1 receptor. Assay conditions are 20 mM Hepes (Fluka, 54461), 100 mM NaCl (Fluka, 71378), 5 mM MgCl2 (Fluka, 63064), 0.1% BSA (Calbiochem, 126609), 1 μM GDP (Sigma, G-7127), 2.5% DMSO (Fluka, 41644), 50 pM ^35S-GTPγS (Amersham Biosciences, SJ1320). The pH is 7.4. Test compounds are dissolved and diluted in 100% DMSO and pre-incubated at room temperature for 30 min in 150 μl of the above assay buffer, in the absence of ^35S-GTPγS. After addition of 50 μl of ^35S-GTPγS, the assay is incubated for 1 h at rt. The assay is terminated by transfer of the reaction mixture to a Multiscreen plate (Millipore, MAHFC1H60) using a cell harvester from Packard Biosciences, and the plates are washed with ice-cold 10 mM Na2HPO4/NaH2PO4 (70%/30%), dried, sealed at the bottom and, after addition of 25 μl MicroScint20 (Packard Biosciences, order#6013621), sealed on the top. Membrane-bound ^35S-GTPγS is measured with a TopCount from Packard Biosciences.
EC50 is the concentration of agonist inducing 50% of the maximal specific ^35S-GTPγS binding. Specific binding is determined by subtracting non-specific binding from maximal binding. Maximal binding is the amount of cpm bound to the Multiscreen plate in the presence of 10 μM of S1P. Non-specific binding is the amount of binding in the absence of an agonist in the assay. […] The EC50 values were determined according to the method described above: […]

[2] = test system: circulating lymphocytes; assay: Assessment of in vivo efficacy: circulating lymphocytes after oral administration; details: 6 h after oral administration of 10 mg/kg to normotensive male Wistar rats, as compared to vehicle-only group
Method: The efficacy of the compounds of Formula (I) is assessed by measuring the circulating lymphocytes after oral administration of 3 to 30 mg/kg of a compound of Formula (I) to normotensive male Wistar rats. The animals are housed in climate-controlled conditions with a 12 h-light/dark cycle, and have free access to normal rat chow and drinking water. Blood is collected before and 3, 6 and 24 h after drug administration. Full blood is subjected to hematology using Advia Hematology system (Bayer Diagnostics, Zurich, Switzerland).
All data are presented as mean±SEM. Statistical analyses are performed by analysis of variance (ANOVA) using Statistica (StatSoft) and the Student-Newman-Keuls procedure for multiple comparisons. The null hypothesis is rejected when p<0.05.

Sequence of recombinant human S1P1 receptor (P21453 whole entry): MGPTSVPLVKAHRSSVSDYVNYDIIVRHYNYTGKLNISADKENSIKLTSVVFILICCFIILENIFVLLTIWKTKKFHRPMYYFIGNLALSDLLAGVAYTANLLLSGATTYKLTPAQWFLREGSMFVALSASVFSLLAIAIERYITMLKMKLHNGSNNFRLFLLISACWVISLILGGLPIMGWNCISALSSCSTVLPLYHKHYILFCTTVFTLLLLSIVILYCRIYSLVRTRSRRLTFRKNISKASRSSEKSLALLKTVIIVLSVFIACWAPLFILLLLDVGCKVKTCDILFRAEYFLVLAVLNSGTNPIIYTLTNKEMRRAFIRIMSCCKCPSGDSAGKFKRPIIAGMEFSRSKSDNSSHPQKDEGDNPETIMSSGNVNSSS

For Cc1cc(-c2nnc(-c3sc(C)c4c3C[C@@H]3[C@H]4C3(C)C)o2)cc(C)n1 [Example 8, 2,6-Dimethyl-4-[5-((1aS,5aR)-1,1,2-trimethyl-1,1a,5,5a-tetrahydro-3-thia-cyclopropa[a]pentalen-4-yl)-[1,3,4]oxadiazol-2-yl]-pyridine], the EC50 [1] was 3.4 nM.

CCc1cc(C=CC(=O)c2sc(C)c3c2CC2C3C2(C)C)cc(C)n1 [Example 1, 3-(2-Ethyl-6-methyl-pyridin-4-yl)-1-((1aS,5aR)-1,1,2-trimethyl-1,1a,5,5a-tetrahydro-3-thia-cyclopropa[a]pentalen-4-yl)-propenone] showed an EC50 [1] of 1.3 nM.

CCc1cc(-c2noc(-c3sc(C)c4c3CC3C4C3(C)C)n2)cc(C)n1 (centres unmarked) [Example 14, 2-Ethyl-6-methyl-4-[5-(1,1,2-trimethyl-1,1a,5,5a-tetrahydro-3-thia-cyclopropa[a]pentalen-4-yl)-[1,2,4]oxadiazol-3-yl]-pyridine] gave an EC50 [1] of 3.7 nM.

For CCc1cc(-c2nnc(-c3sc(C)c4c3C[C@@H]3[C@H]4C3(C)C)o2)cc(C)n1 [Example 5, 2-Ethyl-6-methyl-4-[5-((1aS,5aR)-1,1,2-trimethyl-1,1a,5,5a-tetrahydro-3-thia-cyclopropa[a]pentalen-4-yl)-[1,3,4]oxadiazol-2-yl]-pyridine], the Lymphocyte counts [2] was −77%.

Work on CCc1cc(CCC(=O)c2sc(CC)c3c2CCC(C)(C)C3)cc(C)n1 [Example 4, 1-(3-Ethyl-5,5-dimethyl-4,5,6,7-tetrahydro-benzo[c]thiophen-1-yl)-3-(2-ethyl-6-methyl-pyridin-4-yl)-propan-1-one] yielded an EC50 [1] of 4.6 nM.
